Data from patent US20050255568A1, “Methods and compositions for amino acid production” (priority 2003, published 2005).

Columns and labels:
[1] = target: T1, O-Acetylhomoserine sulfhydrylase (MetY) (Corynebacterium glutamicum, UniProt Q79VI4); settings: cited from earlier work
T1 sequence (Q79VI4 1-437): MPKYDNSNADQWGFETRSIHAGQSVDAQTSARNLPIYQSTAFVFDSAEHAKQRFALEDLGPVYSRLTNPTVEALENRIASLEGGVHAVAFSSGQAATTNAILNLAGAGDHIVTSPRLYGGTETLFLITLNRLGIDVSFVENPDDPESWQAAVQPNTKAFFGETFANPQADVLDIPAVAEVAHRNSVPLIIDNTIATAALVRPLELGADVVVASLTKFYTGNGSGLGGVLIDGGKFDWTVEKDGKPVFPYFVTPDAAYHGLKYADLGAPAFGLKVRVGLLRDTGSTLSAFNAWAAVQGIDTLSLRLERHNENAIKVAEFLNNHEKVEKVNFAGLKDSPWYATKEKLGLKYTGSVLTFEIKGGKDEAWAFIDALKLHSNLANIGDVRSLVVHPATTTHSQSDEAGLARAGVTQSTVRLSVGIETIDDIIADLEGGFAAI

[2] = target: T2, C. glutamicum MetA (Corynebacterium glutamicum, UniProt O68640); type: biochemical
T2 construct: crude protein extracts derived from C. glutamicum strains MA-442 and MA-449 which contain both endogenous and episomal C. glutamicum MetA and MetY genes; expressed in transfected cells; host or cells: C. glutamicum MA-442 (MA-428 derivative of ATCC 13032) carrying episomal plasmid MB-4135 (lacIQ-trcRBS, C. glutamicum metA-RBS-metY, both wild type); crude extract
T2 sequence (O68640 1-377): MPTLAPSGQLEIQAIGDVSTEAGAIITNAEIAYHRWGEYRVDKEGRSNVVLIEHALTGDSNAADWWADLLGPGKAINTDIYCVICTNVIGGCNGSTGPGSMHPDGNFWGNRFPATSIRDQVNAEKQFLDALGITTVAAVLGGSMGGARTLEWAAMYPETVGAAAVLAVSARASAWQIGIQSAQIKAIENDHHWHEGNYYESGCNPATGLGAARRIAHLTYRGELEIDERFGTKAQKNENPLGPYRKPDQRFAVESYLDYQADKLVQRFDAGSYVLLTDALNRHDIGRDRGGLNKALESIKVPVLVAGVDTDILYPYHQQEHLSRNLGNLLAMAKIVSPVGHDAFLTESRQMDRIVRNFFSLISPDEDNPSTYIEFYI
Procedure: MetA activity in C. glutamicum expressing endogenous and episomal metA genes was determined. MetA activity was assayed in crude protein extracts using a protocol described by Kredich and Tomkins (J. Biol. Chem.241(21):4955-4965, 1966). […] Briefly, 1 μg of protein extract was added to a microtiter plate. Reaction mix (250 μl; 100 mM tris-HCl pH 7.5, 2mM 5,5′-Dithiobis(2-nitrobenzoic acid) (DTN), 2 mM sodium EDTA, 2 mM acetyl CoA, 2 mM homoserine) was added to each well of the microtiter plate. In the course of the reactions, MetA activity liberates CoA from acetyl-CoA. A disulfide interchange occurs between the CoA and DTN to produce thionitrobenzoic acid. The production of thionitrobenzoic acid is followed spectrophotometrically. Absorbance at 412 nm was measured every 5 minutes over a period of 30 minutes. A well without protein extract was included as a control. […] Inhibitors were added directly to the reaction mix before it was added to the protein extract. […] Experiments were performed in the presence and absence of IPTG that induces expression of the plasmid borne MetA and MetY genes.

| Compound | MetY enzyme activity (in words) [1] | MetA activity of MA-442 extracts in the presence of S-AM ([2]; 0.2 mM S-AM) | MetA activity of MA-442 extracts in the presence of methionine ([2]; 5 mM methionine) | reduction in MetY enzyme activity ([1]; 0.5 mM methionine, combined allosteric regulation and repression) |
| --- | --- | --- | --- | --- |
| CC(=O)OC[C@H](N)C(=O)O [O-acetylserine] | inhibited |  |  |  |
| C[S+](CC[C@H](N)C(=O)[O-])C[C@H]1O[C@@H](n2cnc3c(N)ncnc32)[C@H](O)[C@@H]1O (stereo partly drawn) [S-AM, S-adenosyl methionine] |  | reduced |  |  |
| N[C@@H](CCO)C(=O)O [homoserine] | inhibited |  |  |  |
| CSCC[C@H](N)C(=O)O [methionine] | inhibited |  | reduced | 99% |
